Experimental data from patent US20230150980A1, “COLLAGEN 1 TRANSLATION INHIBITORS AND METHODS OF USE THEREOF” (Anima Biotech Inc., priority 2020, published 2023).

Tested on: collagen 1
Assay: WI-38 collagen 1 inhibition assay (anti-Collagen I immunofluorescence);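 further: minus sign means inactive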
Type: cell-based
Conditions: cellular EC50, WI-38 human lung fibroblasts, values are LogEC50 classes

SMILES	COL1 Efficacy (LogEC50)
Cc1ncnc(N2CCN(Cc3nc4cccc(C(F)(F)F)c4o3)CC2)c1C [compound 307, 2-((4-(5,6-dimethylpyrimidin-4-yl)piperazin-1-yl)methyl)-7-(trifluoromethyl)benzo[d]oxazole]	++ (++: −5 to −6)
Cc1ncnc(N2CCN(Cc3nc4ccccc4o3)CC2)c1F [compound 309, 2-((4-(5-fluoro-6-methylpyrimidin-4-yl)piperazin-1-yl)methyl)benzo[d]oxazole]	++ (++: −5 to −6)
Cc1ncnc(N2CCN(Cc3nc4ccccc4o3)CC2)c1Cl [compound 310, 2-((4-(5-chloro-6-methylpyrimidin-4-yl)piperazin-1-yl)methyl)benzo[d]oxazole]	++ (++: −5 to −6)
Cc1ncnc(N2CCN(Cc3nc4ccccc4o3)CC2)c1C(F)(F)F [compound 311, 2-((4-(6-methyl-5-(trifluoromethyl)pyrimidin-4-yl)piperazin-1-yl)methyl)benzo[d]oxazole]	+ (+: >−5)
Fc1cncnc1N1CCN(Cc2nc3ccccc3o2)CC1 [compound 313]	+ (+: >−5)
Clc1cncnc1N1CCN(Cc2nc3ccccc3o2)CC1 [compound 314, 2-((4-(5-chloropyrimidin-4-yl)piperazin-1-yl)methyl)benzo[d]oxazole]	++ (++: −5 to −6)
FC(F)(F)c1cncnc1N1CCN(Cc2nc3ccccc3o2)CC1 [compound 315, 2-((4-(5-(trifluoromethyl)pyrimidin-4-yl)piperazin-1-yl)methyl)benzo[d]oxazole]	+ (+: >−5)
Cc1ncnc(N2CCN(C3(c4nc5ccccc5o4)CC3)CC2)c1C [compound 321, 2-(1-(4-(5,6-dimethylpyrimidin-4-yl)piperazin-1-yl)cyclopropyl)benzo[d]oxazole]	++ (++: −5 to −6)
Cn1cc(N2CCN(Cc3nc4ccccc4o3)CC2)nn1 [compound 322]	+ (+: >−5)
Cn1cc(N2CCN(Cc3nc4ccc(F)cc4o3)CC2)nn1 [compound 323]	−
Cn1ccc(N2CCN(Cc3nc4ccccc4o3)CC2)n1 [compound 324, 2-((4-(1-methyl-1H-pyrazol-3-yl)piperazin-1-yl)methyl)benzo[d]oxazole]	+ (+: >−5)
Cn1nccc1N1CCN(Cc2nc3ccccc3o2)CC1 [compound 325]	−
Cn1cnc(N2CCN(Cc3nc4ccccc4o3)CC2)n1 [compound 326, 2-((4-(1-methyl-1H-1,2,4-triazol-3-yl)piperazin-1-yl)methyl)benzo[d]oxazole]	+ (+: >−5)
Cc1ncnc(N2CCN(Cc3nc4ccc(F)cc4o3)CC2)c1Cl [compound 327, 2-((4-(5-chloro-6-methylpyrimidin-4-yl)piperazin-1-yl)methyl)-6-fluorobenzo[d]oxazole]	++ (++: −5 to −6)
CCn1cc(N2CCN(Cc3nc4ccccc4o3)CC2)nn1 [compound 328]	−
Cc1ncnc(N2CCN(Cc3nc4ccc(F)cc4o3)CC2)c1C#N [compound 329, 4-(4-((6-fluorobenzo[d]oxazol-2-yl)methyl)piperazin-1-yl)-6-methylpyrimidine-5-carbonitrile]	++ (++: −5 to −6)
Cc1ncnc(N2CCN(Cc3nc4ccncc4o3)CC2)c1C [compound 330, 2-((4-(5,6-dimethylpyrimidin-4-yl)piperazin-1-yl)methyl)oxazolo[5,4-c]pyridine]	++ (++: −5 to −6)
Cn1cc(N2CCN(Cc3cc4ccc(F)cc4[nH]3)CC2)nn1 [compound 331]	−
c1ccc2oc(CN3CCN(c4c[nH]nn4)CC3)nc2c1 [compound 332]	−
Cc1ncnc(N2CCN(Cc3nc4ccc(F)cc4o3)CC2)c1C(N)=O [compound 333]	−
Cc1ncnc(N2CC3CC2CN3Cc2nc3ccc(F)cc3o2)c1C (centres unmarked) [compound 334, 2-((5-(5,6-dimethylpyrimidin-4-yl)-2,5-diazabicyclo[2.2.1]heptan-2-yl)methyl)-6-fluorobenzo[d]oxazole]	+++ (+++: <−6)
Cc1ncnc(N2CCN(Cc3nc4ccccc4o3)CC2)c1C=O [compound 336, 4-(4-(benzo[d]oxazol-2-ylmethyl)piperazin-1-yl)-6-methylpyrimidine-5-carbaldehyde]	++ (++: −5 to −6)
C#CCCC1(CCOc2cncnc2N2CCN(Cc3cc4ccccc4[nH]3)CC2)N=N1 [compound 337, 2-((4-(5-(2-(3-(but-3-yn-1-yl)-3H-diazirin-3-yl)ethoxy)pyrimidin-4-yl)piperazin-1-yl)methyl)-1H-indole]	++ (++: −5 to −6)
C#CCCC1(CCOc2ccc3cc(CN4CCN(c5ncncc5CC)CC4)[nH]c3c2)N=N1 [compound 338, 6-(2-(3-(but-3-yn-1-yl)-3H-diazirin-3-yl)ethoxy)-2-((4-(5-ethylpyrimidin-4-yl)piperazin-1-yl)methyl)-1H-indole]	+++ (+++: <−6)
CC(C)n1cc(N2CCN(Cc3nc4ccccc4o3)CC2)nn1 [compound 339]	−
Cn1cnc(N2CCN(Cc3nc4ccccc4o3)CC2)c1 [compound 340]	−
